Test results published in publication PMC11554305, “Functional identification of soluble uric acid as an endogenous inhibitor of CD38” (eLife, 2024).

Assays:
A549 cells = test: Intracellular NAD+ assay in A549 cells; type: cell-based, human; settings: sUA 100 to 500 μM, 20 hr
Protocol: A549 cells were seeded in 24-well plates for NAD^+ assay. Briefly, when the confluence reached 80%, the culture medium in each well was discarded, and the cells were washed twice with sterile PBS and incubated in RPMI-1640 medium containing 1% FBS in the presence or absence of sUA (from 100 to 500 μM) for 20 hr. Then, the cells were washed twice with sterile PBS, after the second washing, PBS was completely removed and 100 μL 5% ice-cold perchloric acid (PCA) was added into each well. The plate was kept on ice for 2 hr, then cell samples were collected and centrifuged at 15,000 rpm, 4°C for 10 min. The supernatant was used for subsequent handling and measurement (see LC-MS/MS analysis).
(§1) As mentioned above, samples (cells, tissues, blood, or reaction buffer) were treated with ice-cold PCA, after extraction and centrifugation, the collected supernatant was appropriately diluted in 5% ice-cold PCA when applicable, and then was vortexed for 30 s and centrifuged at 15,000 rpm, 4°C for 5 min. […] All the samples after handling were immediately analyzed in this study without freezing and thawing.
(§2) The LC-MS/MS system consisted of a triple quadrupole LCMS-8050 (Shimadzu) and an LC-30A system (Shimadzu). […] NAD^+ and NMN were measured independently in this study, as their peaks were hardly separated within a short time.

primed WT BMDMs = test: Canonical inflammasome assay, IL-1β release in primed BMDMs; type: cell-based, mouse
Protocol: Human IL-1β, mouse IL-1β, IL-6, IL-18, TNF-α, and CXCL1 levels were measured according to the protocols provided by the manufacturer. Serum samples were diluted before ELISA when applicable. In this study, all the samples were frozen after collection and thawed before ELISA.
WT and CD38 KO BMDMs were primed with 100 ng/mL ultrapure LPS for 4 hr. Subsequently, primed BMDMs were pre-incubated with or without sUA for 2 hr, the cells were then washed twice with sterile PBS and were stimulated with nigericin, MSU crystals, or cLPS in serum-free RPMI-1640 medium.
After stimulation, the culture medium was collected and centrifuged at 3000 rpm, 4°C for 5 min, the supernatant was collected and stored at –30°C until ELISA.

recombinant hCD38 = biological target: T1, recombinant hCD38 (Homo sapiens, UniProt P28907); test: Metabolic assay of NAD+ (degradation by recombinant hCD38); type: biochemical; settings: sUA 100, 200 or 500 μM; NAD+ 200 μM; hCD38 20 ng/mL; Figure 3F
T1 construct: the commercial recombinant hCD38 without a transmembrane region was partially used in this study; purchased Sino Biological 10818-H08H
T1 sequence (P28907 43-300 limits assumed): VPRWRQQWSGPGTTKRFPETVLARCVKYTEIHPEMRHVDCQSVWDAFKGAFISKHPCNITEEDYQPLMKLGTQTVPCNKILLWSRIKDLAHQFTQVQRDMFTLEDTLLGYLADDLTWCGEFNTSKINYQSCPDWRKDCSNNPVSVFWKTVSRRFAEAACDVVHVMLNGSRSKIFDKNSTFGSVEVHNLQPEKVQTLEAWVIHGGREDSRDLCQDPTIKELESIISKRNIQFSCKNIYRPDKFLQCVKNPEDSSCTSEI
Protocol: NAD^+ degradation by recombinant hCD38 was detected in hydrolase reaction buffer. At first, sUA (100, 200, and 500 μM) or other ligands at 500 μM in hydrolase reaction buffer (250 mM sucrose, 40 mM Tris) was freshly prepared, then the pH was immediately adjusted to 7.4 by HCl. Recombinant hCD38 was added into the buffer of experimental groups at 20 ng/mL, then the buffer was maintained at 37°C. The substrate NAD^+ was dissolved in hydrolase reaction buffer (pH 7.4) at 10 mM, and the pH was further adjusted to 7.4. The reaction was started with the addition of NAD^+ in the buffer for each group (final concentration is 200 μM), including control group (recombinant hCD38 free). All the buffers were incubated at 37°C with constant stirring. […]
as §1, §2

[1] = Solubility and crystal precipitation in solution; type: physicochemical
Protocol: Guanosine was dissolved in DMSO and diluted in the reaction buffer for subsequent assays.
MSU crystals were prepared by the recrystallization of oversaturated sUA according to a previous report ([Martinon et al., 2006]). Improper preparation of sUA solution may introduce crystals to cause false-positive or false-negative results. […] In this study, the sUA solution was prepared according to an improved protocol ([Ma et al., 2020]). […] Then, sUA solution was immediately filtered by 0.2 μm filters and diluted to experimental concentration (up to 10 mg/dL, 595 μM) for cell experiments. […]

- Induction of IL-1β release by sUA itself (primed WT BMDMs; sUA 100, 200 and 500 μM, 6 hr): did not induce IL-1β release
- NAD+ availability, degradation by recombinant hCD38 (recombinant hCD38): increased NAD^+ availability
- Crystal precipitation in stock solution ([1]; 5 mg/mL in NaOH without pH adjustment, 2-month storage at 4°C): Visible crystals were observed
- Crystal precipitation in high-concentration stock solutions ([1]; long-term storage at 4°C): promoted crystal precipitation
Compound: O=c1[nH]c(=O)c2[nH]c(=O)[nH]c2[nH]1 [sUA, uric acid]
- Intracellular NAD+ (A549 cells): boosted intracellular NAD^+
- Inflammasome activation (IL-1β release) (primed WT BMDMs; sUA 100 or 200 μM pre-incubation 2 hr): hardly suppressed inflammasome activation
- Crystal precipitation in stock solution ([1]; 50 mg/mL in NaOH without pH adjustment): Crystals were immediately precipitated after dissolution
